Experimental data taken from ChEMBL document CHEMBL4673389 (ACS Med Chem Lett, 2021).
Calls of active or inactive are those of the source. No cut-off for these calls is given here.

These molecules were tested against T1, Protein cereblon (Homo sapiens, UniProt Q96SW2) (assay: Competitive binding affinity to human CRBN-thalidomide binding domain expressed in Escherichia coli by FRET assay).

Ki [µM] | SMILES
137 | C[S+](C)[O-] [DIMETHYL SULFOXIDE]

These molecules were tested against T2, Cereblon isoform 4 (Magnetospirillum gryphiswaldense, UniProt A4TVL0) (assay: Binding affinity to Magnetospirillum gryphiswaldense cereblon isoform 4 by measuring baseline corrected normalized fluorescence by MST based assay).
T2 sequence (A4TVL0 whole entry): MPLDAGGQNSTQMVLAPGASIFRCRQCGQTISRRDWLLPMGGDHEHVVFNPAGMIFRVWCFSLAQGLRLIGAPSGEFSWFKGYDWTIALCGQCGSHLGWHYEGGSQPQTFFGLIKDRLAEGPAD

IC50 [µM] | Ki [µM] | SMILES
3.53 | 0.642 | O=C1CCC(=O)N1 [SUCCINIMIDE]

What follows are molecules tested against T1, Protein cereblon (assay: Binding affinity to human CRBN-thalidomide binding domain expressed in Escherichia coli by measuring baseline corrected normalized fluorescence by MST based assay).

SMILES | IC50 [µM] | Ki [µM] | Activity
O=c1ccn([C@@H]2O[C@H](COP(=O)(O)O)[C@@H](O)[C@H]2O)c(=O)[nH]1 | > 5000 |  | 
O=C1CNCN1 | > 5000 |  | 
NN1CC(=O)NC1=O | 447 | 229 | 
CN1CC(=O)NC1=O | 137 | 67.8 | 
Nn1ccc(=O)[nH]c1=O | 84.8 | 40.7 | 
O=C1CN(/N=C/c2ccc([N+](=O)[O-])o2)C(=O)N1 |  |  | inactive
O=C1CN(/N=C/c2ccccc2)C(=O)N1 |  |  | inactive
CC(C)OC(=O)[C@H](C)N[P@](=O)(OC[C@H]1O[C@@H](n2ccc(=O)[nH]c2=O)[C@](C)(F)[C@@H]1O)Oc1ccccc1 [SOFOSBUVIR] | > 1000 |  | 

The remaining lines, values ahead:

IC50 [µM] | Ki [µM] | Activity | SMILES
 |  | inactive | O=C1CN(/N=C/c2ccccc2[N+](=O)[O-])C(=O)N1
 |  | inactive | O=C1CN(/N=C/c2ncc(-c3ccc(Br)cc3)o2)C(=O)N1
15.6 | 4.71 |  | COc1c(-c2ccc3cc(NS(C)(=O)=O)ccc3c2)cc(-n2ccc(=O)[nH]c2=O)cc1C(C)(C)C [DASABUVIR]
> 1000 |  |  | O=C1CN(/N=C/C=C/c2ccc([N+](=O)[O-])o2)C(=O)N1 [FURAZIDIN]
421 | 216 |  | O=C1CNC(=O)N1 [HYDANTOIN]
202 | 102 |  | COc1ccc(C2CNC(=O)C2)cc1OC1CCCC1 (stereo unspecified) [ROLIPRAM]
22.3 | 8.19 |  | O=C1CCC(=O)N1 [SUCCINIMIDE]
332 | 169 |  | O=C1CNC(=S)N1 [THIOHYDANTOIN]
415 | 212 |  | O=c1cc[nH]c(=O)[nH]1 [URACIL]
757 | 390 |  | O=c1ccn([C@@H]2O[C@H](CO)[C@@H](O)[C@H]2O)c(=O)[nH]1 [URIDINE]
